Square brackets hold non-standard residues; d marks the D form. Ends that are not written are not given here. Abu = CC[C@H](N)C(=O)O
Assays:
Assay type in all cases: cell-based
[1] = test system: human mesenchymal stem cells (hMSC); experiment: Cell proliferation of hMSCs depending on the culture conditions; settings: for number of MSC: add-on of ATRA (from J5); for effect on cell proliferation (number of MSCs): whatever the conditions / FBS concentration (2% or 10% FBS)
Excerpt: Adult human bone marrow mononuclear cells Ficoll-extracted from two donors were obtained from Lonza. Cells were passaged once a week. The human mesenchymal stem cells (hMSC) were selected by plastic adherence and expanded by plating 50 000 cells/cm^2 in Modified Eagle Medium Alpha (MEMalpha, MacoPharma) supplemented with 10% Fetal Bovine Serum (FBS, PAA Laboratoires) and 0.1% Penicilline/Streptomycine (P/S, Lonza). The culture medium was changed after 3 days and then every day. After 2 to 5 weeks of culture at 37° C. in a humid environment and under 5% CO2, hMSC were harvested by trypsinization. The phenotype was confirmed by FACS analysis (BD Bioscience, BD LSR II) with CD73, CD90 and CD105 (positive), as well as CD34 and CD45 (negative) (Table 1).
(§1) To investigate the neural differentiation capacity of the peptides, 25 cm^2 flasks and 12-wells culture plates were coated with sterile aqueous solutions of either NX210 or NS640 at a concentration of 80 μg/cm^2. Coatings were carried out at 37° C. and 5% CO2 over-night prior to cell plating.
On Day 0 (D0), hMSC were seeded at a concentration of 3,000 cells/cm^2 in pre-coated 25 cm^2 flasks or 12-well culture plates in complete medium and culture was placed at 37° C. in a humid environment and under 5% CO2. After 24h, medium was changed and replaced by different combinations of media containing either: MEMalpha—bFGF 12.5 ng/mL—FBS 2%—P/S 0.1%; MEMalpha—bFGF 12.5 ng/mL—FBS 10%—P/S 0.1%; MEMalpha—FBS 2%—P/S 0.1% (control condition); MEMalpha—FBS 10%—P/S 0.1% (control condition). The cells were placed at 37° C. in a humid environment and under 5% CO2, and medium was changed twice a week. […] thus was changed with: MEMalpha—ATRA […]—FBS 2%—P/S 0.1%; MEMalpha—ATRA 20 μM—FBS 10%—P/S 0.1%; MEMalpha—FBS 2%—P/S 0.1% (control condition); MEMalpha—FBS 10%—P/S 0.1% (control condition). The cells were placed at 37° C. in a humid environment and under 5% CO2. Medium was changed twice a week. On Day 15 (D15), cells were harvested by trypsinization for mRNA extraction or fixed immunocytochemical analysis.

[2] = test system: human mesenchymal stem cells (hMSC); experiment: Neural differentiation of hMSCs: immunocytochemical analysis (Nestin, MAP-2); settings: bFGF; for MAP-2 marker expression (immunocytochemistry staining) / Nestine marker expression (immunocytochemistry staining): 2% FBS, with or without peptide coating (FIG. 8); for Nestine expression (staining intensity): with or without peptide coating, compared to the control condition (FIG. 8)
Method: as §1
(§2) On Day 0 (D0), hMSC were seeded at a concentration of 3,000 cells/cm^2 in pre-coated 25 cm^2 flasks or 12-well culture plates in complete medium and culture was placed at 37° C. in a humid environment and under 5% CO2. After 24h, medium was changed and replaced by different combinations of media containing either: MEMalpha—bFGF 12.5 ng/mL—FBS 2%—P/S 0.1%; MEMalpha—bFGF 12.5 ng/mL—FBS 10%—P/S 0.1%; MEMalpha—FBS 2%—P/S 0.1% (control condition); MEMalpha—FBS 10%—P/S 0.1% (control condition). The cells were placed at 37° C. in a humid environment and under 5% CO2, and medium was changed twice a week. On Day 8, medium was replaced by medium containing ATRA in the place of bFGF and thus was changed with: MEMalpha—ATRA […]—FBS 2%—P/S 0.1%; MEMalpha—ATRA 20 μM—FBS 10%—P/S 0.1%; MEMalpha—FBS 2%—P/S 0.1% (control condition); MEMalpha—FBS 10%—P/S 0.1% (control condition). The cells were placed at 37° C. in a humid environment and under 5% CO2. Medium was changed twice a week. On Day 15 (D15), cells were harvested by trypsinization for mRNA extraction or fixed immunocytochemical analysis.
Assessment of differentiation was performed by gene expression after extraction of mRNA at various time point (DO, D1, D8 and D15), and immunocytochemical analysis performed at the end of the culture period (D15).
Immunocytochemical analyses were carried out on cells fixed in 4% paraformaldehyde and using standard protocols. After blocking with Triton 1×0.1%/BSA 5% during 30 min, cells were incubated with antibodies directed against Nestin (Millipore) or MAP-2 (Sigma) overnight at +4° C. After washing, appropriate FITC or Cyandidine-5 labelled secondary antibody are added. Nuclei were counterstained with Hoescht 33258 (Sigma). Obervations were performed using Leica TCS LSI system.

[3] = test system: human mesenchymal stem cells (hMSC); experiment: Neural differentiation of hMSCs: gene expression by real-time PCR
Method: as §1
as §2, with “On Day 15 (D15), cells were harvested by trypsinization for mRNA extraction or fixed immunocytochemical analysis.” left out
Total RNA was extracted using RNAeasy total purification kit following instructions of the manufacturer (Qiagen). cDNA were generated using a High-Capacity cDNA Reverse Transcription kit (Applied Biosystems) as described by the manufacturer.
The expression levels of genes (GFAP, Musashi 1, Nestin, Beta3-Tubuline, MAP-2 and GAPDH) were analyzed by real-time PCR using TaqMan gene Expression Master Mix (Applied Biosystems) on the Applied Biosystems 7900 Real time PCR system (Life technologies). Samples were analyzed in triplicates. Data were normalized using the GAPDH gene as an internal control and relative quantification (RQ) of the genes in a sample was determined according to the equation 2^−Δct.

[4] = patient no 1, day 5, bFGF 10% without ATRA (FIG. 6)
[5] = patient no 1, bFGF 10% without ATRA (FIG. 6)
[6] = patient no 1, bFGF 10% without ATRA, with respect to J0 (FIG. 6)
[7] = patient no 2, bFGF 10% without ATRA (FIG. 7)
[8] = patient no 2, bFGF 10% without ATRA, with respect to J0 (FIG. 7)

## CC1=C(/C=C/C(C)=C/C=C/C(C)=C/C(=O)O)C(C)(C)CCC1 [ATRA, reference compound]
[1]; 2% FBS
  number of MSC: small difference
[1]; 10% FBS
  number of MSC: decrease

## W-S-G-W-S-S-Abu-S-R-S-Nm (WSGWSS[Abu]SRS-NH2; N-terminus assumed; SMILES CC[C@H](NC(=O)[C@H](CO)NC(=O)[C@H](CO)NC(=O)[C@H](Cc1c[nH]c2ccccc12)NC(=O)CNC(=O)[C@H](CO)NC(=O)[C@@H](N)Cc1c[nH]c2ccccc12)C(=O)N[C@@H](CO)C(=O)N[C@@H](CCCNC(=N)N)C(=O)N[C@@H](CO)C(N)=O) [NS640]
[2]
  MAP-2 marker expression (immunocytochemistry staining): stronger staining
  Nestine marker expression (immunocytochemistry staining): stronger staining
[2]; 10% FBS, peptide coating (FIG. 8)
  MAP-2 protein presence: makes possible to observe MAP-2 protein presence
[2]; 10% FBS
  Nestine expression (staining intensity): maximized
[1]
  effect on cell proliferation (number of MSCs): no effect
[3]; bFGF then ATRA, 2% FBS, peptide coating 80 μg/cm2
  effect of peptide coating on the increase in Nestin, βIII-Tubulin and MAP-2 gene expression: does not modify this increase
[3]; bFGF then ATRA, 10% FBS, peptide coating, vs ×0.75 without peptide (FIG. 5)
  MAP-2 expression: 1.46 ×
[3]; bFGF then ATRA, 10% FBS, peptide coating, vs ×1.2 without peptide (FIG. 5)
  Nestin expression: 1.5 ×
[3]; [4]
  Nestin expression: 2 ×
[3]; patient no 2, after 5 days of culture, with bFGF (FIG. 7)
  βIII-Tubuline expression: maximized

## bFGF: growth factor added to the hMSC culture medium at 12.5 ng/mL
[2]
  MAP-2 marker expression (immunocytochemistry staining): increases the expression
  Nestine marker expression (immunocytochemistry staining): increases the expression
[2]; 10% FBS
  Nestine expression (staining intensity): increases Nestine expression
[1]
  effect on cell proliferation (number of MSCs): positive effect
[3]; 2% FBS, Patient no2
  Induction of gene expression: MAP-2 P2: 3
[3]; [5]
  Musashi-1 expression: decrease
  Nestin expression: decrease
[3]; [6]
  expression of MAP-2: 2.3 ×
  expression of βIII Tubulin: 9.3 ×
[3]; [4]
  Nestin expression: 0.6 ×
[3]; patient no 2, D5, with bFGF (FIG. 7)
  MAP-2 expression: decreased
[3]; [7]
  Musashi-1 expression: decrease
  Nestin expression: decrease
[3]; patient no 2, bFGF 10% without ATRA, with or without coating (FIG. 7)
  Nestin expression: 0.6 ×
[3]; [8]
  expression of MAP-2: 2.3 ×
  expression of βIII Tubulin: 9.3 ×

Source: patent publication US20200080053A1, “USE OF PEPTIDE COMPOUNDS FOR PROMOTING SURVIVAL, GROWTH AND CELL DIFFERENTIATION” (Axoltis Pharma, priority 2016, published 2020)
